In publication PMC4322352, “Sirtinol Inhibits Neutrophil Elastase Activity and Attenuates Lipopolysaccharide-Mediated Acute Lung Injury in Mice” (Scientific Reports, 2015):

Target: T1, human neutrophil elastase (HNE) (Homo sapiens, UniProt P08246)
T1 construct: gene ELANE
T1 sequence (P08246 30-247): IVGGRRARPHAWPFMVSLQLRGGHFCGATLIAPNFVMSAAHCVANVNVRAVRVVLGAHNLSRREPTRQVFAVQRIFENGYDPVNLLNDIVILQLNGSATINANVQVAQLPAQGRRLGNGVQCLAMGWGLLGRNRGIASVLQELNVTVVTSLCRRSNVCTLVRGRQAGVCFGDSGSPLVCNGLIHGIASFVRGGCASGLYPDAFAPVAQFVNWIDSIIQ
Experiment: chromogenic enzymatic assay with purified HNE, absorbance at […] nm
Assay type: biochemical

With `CC(NC(=O)c1ccccc1/N=C/c1c(O)ccc2ccccc12)c1ccccc1` (stereo not shown) [Sirtinol, 2-[(2-hydroxynaphthalen-1-ylmethylene)amino]-N-(1-phenethyl) benzamide] the IC50 was 8.4 ± 0.53 µM.
